Tests used:
Experiment in all cases: relative viability (nuclei count vs DMSO), 5 days (fraction); higher = more cells survive
Pictilisib + Trametinib = compound: CS(=O)(=O)N1CCN(Cc2cc3nc(-c4cccc5[nH]ncc45)nc(N4CCOCC4)c3s2)CC1 [Pictilisib] + CC(=O)Nc1cccc(-n2c(=O)n(C3CC3)c(=O)c3c(Nc4ccc(I)cc4F)n(C)c(=O)c(C)c32)c1 [Trametinib] (partner 0.02 µM)
Procedure, shortened: (§1)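 Each reported value is a median over duplicate plates. It expresses relative viability: treated-well nuclei count divided by vehicle-well nuclei count. Lung cancer cell lines in 1536-well plates were dosed by pin tool a day after seeding, alone with one drug or with a fixed anchor-drug dose plus five library-drug doses (not always all listed) in √10 steps, and nuclei were counted after 5 days.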

Pictilisib + Olaparib = compound: CS(=O)(=O)N1CCN(Cc2cc3nc(-c4cccc5[nH]ncc45)nc(N4CCOCC4)c3s2)CC1 [Pictilisib] + O=C(c1cc(Cc2n[nH]c(=O)c3ccccc23)ccc1F)N1CCN(C(=O)C2CC2)CC1 [Olaparib] (partner 8 µM)
Procedure, shortened: as §1

MK-2206 + Decitabine = compound: NC1(c2ccc(-c3nc4ccn5c(=O)[nH]nc5c4cc3-c3ccccc3)cc2)CCC1 [MK-2206] + Nc1ncn([C@H]2C[C@H](O)[C@@H](CO)O2)c(=O)n1 [Decitabine] (partner 2 µM)
Procedure, shortened: as §1

MK-2206 + Palbociclib = compound: NC1(c2ccc(-c3nc4ccn5c(=O)[nH]nc5c4cc3-c3ccccc3)cc2)CCC1 [MK-2206] + CC(=O)c1c(C)c2cnc(Nc3ccc(N4CCNCC4)cn3)nc2n(C2CCCC2)c1=O [Palbociclib] (partner 0.5 µM)
Procedure, shortened: as §1

MK-2206 + Linsitinib = compound: NC1(c2ccc(-c3nc4ccn5c(=O)[nH]nc5c4cc3-c3ccccc3)cc2)CCC1 [MK-2206] + C[C@]1(O)C[C@@H](c2nc(-c3ccc4ccc(-c5ccccc5)nc4c3)c3c(N)nccn32)C1 [Linsitinib] (partner 1 µM)
Procedure, shortened: as §1

| Cell Line | relative viability (Pictilisib + Trametinib; first compound 0.02 µM) | relative viability (Pictilisib + Trametinib; first compound 0.06325 µM) | relative viability (Pictilisib + Trametinib; first compound 0.6325 µM) | relative viability (Pictilisib + Trametinib; first compound 2 µM) | relative viability (Pictilisib + Olaparib; first compound 0.02 µM) | relative viability (Pictilisib + Olaparib; first compound 0.06325 µM) | relative viability (Pictilisib + Olaparib; first compound 0.6325 µM) | relative viability (Pictilisib + Olaparib; first compound 2 µM) | relative viability (MK-2206 + Decitabine; first compound 0.01 µM) | relative viability (MK-2206 + Decitabine; first compound 0.3162 µM) | relative viability (MK-2206 + Decitabine; first compound 1 µM) | relative viability (MK-2206 + Palbociclib; first compound 0.01 µM) | relative viability (MK-2206 + Palbociclib; first compound 0.3162 µM) | relative viability (MK-2206 + Palbociclib; first compound 1 µM) | relative viability (MK-2206 + Linsitinib; first compound 0.01 µM) | relative viability (MK-2206 + Linsitinib; first compound 0.03162 µM) | relative viability (MK-2206 + Linsitinib; first compound 0.3162 µM) | relative viability (MK-2206 + Linsitinib; first compound 1 µM) | relative viability (MK-2206 + Decitabine; first compound 0.03162 µM) | relative viability (MK-2206 + Palbociclib; first compound 0.03162 µM) |
| --- | --- | --- | --- | --- | --- | --- | --- | --- | --- | --- | --- | --- | --- | --- | --- | --- | --- | --- | --- | --- |
| SW 900 | 0.899 | 0.753 | 0.683 | 0.364 | 0.793 | 0.818 | 0.713 | 0.471 | 0.449 | 0.399 | 0.391 | 0.582 | 0.532 | 0.423 | – | – | – | – | – | – |
| PC-3 [JPC-3] | 0.727 | 0.658 | 0.586 | 0.433 | 1.24 | 1.31 | 1.21 | 0.754 | 0.806 | 0.855 | 0.852 | 0.5 | 0.535 | 0.519 | 1.01 | 0.938 | 0.91 | 0.97 | 0.807 | 0.509 |
| NCI-H1703 | – | – | – | – | 0.471 | 0.378 | 0.214 | 0.122 | – | – | – | – | – | – | 1.01 | 1.03 | 0.544 | 0.748 | – | – |
| EPLC-272H | 0.275 | 0.278 | 0.212 | 0.126 | 0.773 | 0.731 | 0.36 | 0.241 | 0.392 | 0.364 | 0.392 | 0.32 | 0.315 | 0.328 | 1.17 | 1.18 | – | 1.15 | 0.345 | 0.287 |
| NCI-H1792 | 0.505 | 0.346 | 0.305 | 0.102 | 0.386 | 0.294 | 0.261 | 0.0715 | 0.6 | 0.581 | 0.458 | 0.631 | 0.609 | 0.653 | 0.573 | 0.596 | 0.549 | 0.636 | 0.577 | 0.751 |
| NCI-H2085 | 0.443 | 0.471 | 0.2 | 0.26 | 0.764 | 0.823 | 0.586 | 0.353 | 0.511 | 0.513 | 0.514 | 0.433 | 0.397 | 0.522 | 0.915 | 0.85 | 0.815 | 0.692 | 0.584 | 0.558 |
| LK-2 | 0.738 | 0.654 | 0.558 | 0.257 | 0.523 | 0.588 | 0.485 | 0.304 | 0.36 | 0.286 | 0.12 | 0.605 | 0.68 | 0.457 | 0.511 | 0.641 | 0.627 | 0.699 | 0.355 | 0.881 |
| NCI-H1395 | 1.03 | 1.03 | 0.866 | 0.477 | 0.514 | 0.439 | 0.367 | 0.367 | 0.703 | 0.705 | 0.657 | 0.65 | 0.485 | 0.526 | 1.22 | 1.03 | 0.915 | 1.23 | 0.853 | 0.664 |
| ABC-1 | – | – | – | – | 0.781 | 0.721 | 0.79 | 0.721 | 1.19 | 1.06 | 1.02 | 0.809 | 0.641 | 0.605 | 0.799 | 0.742 | 0.881 | 0.868 | 1.25 | 0.669 |
| RERF-LC-KJ | 0.828 | 0.859 | 0.708 | 0.56 | 0.925 | 0.834 | 0.784 | 0.578 | 0.788 | 0.599 | 0.62 | 0.954 | 1 | 1.06 | 0.848 | 0.864 | 0.9 | 0.789 | 0.677 | 1.13 |
| LU99A | 0.579 | 0.478 | 0.407 | 0.239 | 0.273 | 0.301 | 0.254 | 0.216 | 0.854 | 0.921 | 0.903 | 0.41 | 0.413 | 0.35 | 0.51 | 0.506 | 0.523 | 0.421 | 0.937 | 0.419 |
| NCI-H650 | 1.03 | 0.969 | 0.8 | 0.5 | 0.372 | 0.37 | 0.44 | 0.348 | 0.344 | 0.347 | 0.284 | 0.292 | 0.311 | 0.309 | 0.809 | 1.04 | 0.798 | 0.791 | 0.306 | 0.328 |
| NCI-H2347 | 0.271 | 0.269 | 0.25 | 0.24 | 0.639 | 0.626 | 0.474 | 0.406 | 0.585 | 0.591 | 0.557 | 0.418 | 0.39 | 0.3 | 0.906 | 1 | 0.848 | 0.952 | 0.573 | 0.415 |
| HARA | 0.626 | 0.715 | 0.479 | 0.129 | 0.837 | 0.97 | 0.92 | 0.358 | 0.435 | 0.551 | 0.587 | 0.268 | 0.27 | 0.221 | 0.907 | 0.919 | 0.906 | 0.922 | 0.481 | 0.343 |
| NCI-H2228 | 0.391 | 0.519 | 0.199 | 0.148 | 0.715 | 0.734 | 0.45 | 0.209 | – | – | – | 0.586 | 0.487 | 0.725 | 0.546 | 0.677 | 0.303 | 0.264 | – | 0.848 |
| EKVX | 0.424 | 0.287 | 0.268 | 0.193 | 0.962 | 0.828 | 0.777 | 0.406 | 0.359 | 0.324 | 0.322 | 0.542 | 0.363 | 0.352 | 0.96 | 1.09 | 0.846 | 0.801 | 0.339 | 0.458 |
| HCC-827 | 0.519 | 0.422 | 0.378 | 0.235 | 0.795 | 0.512 | 0.433 | 0.284 | 0.347 | 0.276 | 0.228 | 0.568 | 0.292 | 0.344 | 1.01 | 0.989 | 0.982 | 0.914 | 0.256 | 0.542 |

From the supplement of paper PMC10307832
